Source: US20260315653A1, “ANTICOAGULANT COMPOSITIONS COMPRISING ANTI-PLATELET AND ANTI-INFLAMMATORY DRUGS AND METHODS AND DEVICES FOR THEIR USE” (Elixir Medical Corporation, priority 2023, published 2026)

Experiments:
[1] = In-vitro elution of coated stents in 0.01M phosphate buffered saline at 37° C. (HPLC); format: physicochemical; settings: 5 min
Experimental: (§1) In-Vitro Elution evaluation of the EDTA coated stent above prepared was performed in 0.01M phosphate buffered saline at 37° C. water shaking bath then tested on High Performance Liquid Chromatography (HPLC). EDTA was separated from interfering peaks by a Carbon18 reverse phase column and quantified with an external EDTA calibration standard solution prepared at similar concentrations. The percentage of EDTA eluted was calculated during each time point.
as §1, with “of Tetra acetoxymethyl ester” for “of the”, “stent” for “stent above prepared”, “(HPLC). Tetra acetoxymethyl ester” for “(HPLC).”, “external tetra acetoxymethyl ester” for “external”, “of tetra acetoxymethyl ester” for “of”
In-Vitro Elution evaluation of the EDTA complex coated stent was performed in 0.01M phosphate buffered saline at 37° C. water shaking bath then tested on High Performance Liquid Chromatography (HPLC). EDTA disodium was separated from interfering peaks by a Carbon18 reverse phase column and quantified with an external EDTA disodium calibration standard solution prepared at similar concentrations. […]

[2] = test system: blood clotting (fresh pig blood); experiment: Activated clotting time (ACT) of EDTA or analogues in fresh pig blood (Example 12); settings: for Increase in clotting time compared to control: control 154 sec
Experimental: The activated clotting time (ACT) evaluation of EDTA or analogues was performed in fresh pig blood and recorded employing the Hemochron® Response device.
The ACT measurements were made in fresh pig blood. 1.0 ml of fresh pig blood was added to a test tube containing an activator (Hemochron@Celite@ ACT tubes, Lot F8FTE026 from Accriva Diagnostics, Inc.). A target amount of drug solution was then added into the test tube. The test tube was gently swirled so that the blood and drug was well-mixed. 0.1 ml of 0.3M calcium chloride was then added. The tube was gently shaken before being inserted into the Hemochron Response detector. The ACT read out was recorded and reported. The ACT of the control blood in the absence of any drug as first determined to establish a baseline. Then ACT was determined in the presence of different concentrations of EDTA or analogues as a single component.

[3] = pH of 1 mg/ml EDTA or analogue in water or phosphate buffer; format: physicochemical
Excerpt: Based on the pH of EDTA or analogues in water and in 0.1M phosphate buffered saline as show in Table 2, EDTA disodium salt or dipotassium salt has a pH close to neutral pH in human body (6.42-6.92), whereas EDTA tetrasodium or trisodium has a very basic pH (>8.0) in human body. EDTA disodium or dipotassium is preferred in the examples.

[4] = as above; format: physicochemical; settings: 1 mg/ml in 0.01 M pH 7.4 phosphate buffer; 21.8-22.3 ° C.; listed as EDTA tetra sodium

Cumulative percent release of EDTA [1]: about 99.8%
pH ([3]; 1 mg/ml in d-water, 21.8-22.0 ° C., listed as EDTA tetra sodium): 9.61
pH ([3]; in water and phosphate buffered saline, listed as EDTA tetrasodium): > 8.0
pH [4]: 8.27
Structure (SMILES): O=C(O)CN(CCN(CC(=O)O)CC(=O)O)CC(=O)O [EDTA•4Na•xH2O]
Clotting time (ACT) ([2]; 100 ng/mg): 204 s
Increase in clotting time compared to control ([2]; 100 ng/mg): 50 s
Clotting time (ACT) ([2]; 200 ng/mg): 275 s
Increase in clotting time compared to control ([2]; 200 ng/mg): 121 s
Clotting time (ACT) ([2]; 250 ng/mg): 329 s
Increase in clotting time compared to control ([2]; 250 ng/mg): 175 s
Clotting time (ACT) ([2]; 300 ng/mg): >500 s
Increase in clotting time compared to control ([2]; 300 ng/mg): >346 s
blood coagulation compared to the blood control ([2]; EDTA 200 ng/mg, sodium salts 300 ng/mg, listed as EDTA tetra sodium salt): The same trend
